Source: US20170157212A1, “CDK MODULATORS AND METHODS FOR THE TREATMENT OF CANCER” (Salk Institute for Biological Studies, priority 2015, published 2017)

Columns and labels:
Cdk12 = Cdk12 (Homo sapiens, UniProt Q9NYV4); details: have been shown (prior knowledge); cited from earlier work
[1] = system: CRIF1-CDK12 interaction in U2OS cells; assay: Co-immunoprecipitation of CRIF1 with CDK12:CCNK under oxidative stress; type: cell-based, human; details: 100 μM for 4 h, reciprocal co-immunoprecipitation
Procedure: (§1) FIGS. 7A-7F. […] (F) Oxidative stress activates the CDK12 pathway.
(§2) CDK12 was also recently shown to be essential for NRF2-dependent transcription (Li et al., Sci Rep 6, 21455, 2016). To examine whether CDK12 activity is regulated globally by oxidative stress in human cells, U2OS cells were treated with tBHQ (tert-butylhydroquinone) to induce mitochondrial oxidative stress. […] In contrast, oxidative stress had no effect on the interaction of CCNK with CDK12.

U2OS cells [2] = assay: Immunoblot of CDK12 substrate phosphorylation under oxidative stress; type: cell-based, human; details: 100 μM for 4 h
Procedure: as §1, §2

[3] = system: eIF4G-bound mRNAs in U2OS cells; assay: RIP-seq of eIF4G-bound mRNAs; type: cell-based, human; details: transcriptional targets excluded
Procedure: All steps were conducted at 4° C. in RNase-free conditions. U20S cells (5×10^6) were transfected with the indicated siRNAs and washed twice with cold PBS. […] Reverse transcription and qRT-PCR for quantitative RNA analysis was carried out as described above.
All steps were conducted at 4° C. in RNase-free conditions. […] Reverse transcription and qRT-PCR for quantitative RNA analysis was carried out as described above.
High throughput sequencing was performed. For detail of analysis, sequenced reads were quality-tested using FASTQC and aligned to the hg19 human genome using the STAR aligner version 2.4.0 k (Dobin et al., Bioinformatics. 2013; 29(1):15-21. doi: 10.1093/bioinformatics/bts635. pmid:23104886). Mapping was carried out using default parameters (up to 10 mismatches per read, and up to 9 multi-mapping locations per read). […] Raw gene expression was quantified across all gene exons (RNA-Seq) or across gene bodies (RIP-Seq), using the top-expressed isoform as proxy for gene expression, and differential gene expression was carried out using the edgeR package version 3.6.8 (Robinson et al. (2010) Bioinformatics, 26, pp. 1) using duplicates to compute within-group dispersion. […]

U2OS cells [4] = details: CDK12 siRNA, 1 μM for 12 hr
Procedure: Top panel: U2OS cells were treated with tBHQ (tert-Butylhydroquinone) 100 μM for 4 h, and cell extracts were analyzed by co-immunoprecipitation with anti-CDK12 antisera for association of CRIF1 or CCNK.

[5] = system: CHK1, RPL26, TMA7 gene promoters in U2OS cells; assay: Chromatin immunoprecipitation (ChIP) at CDK12 target gene promoters; type: cell-based, human; details: 12 hr treatment
Procedure: Briefly, 5×10^6 cells were twice washed with ice-cold PBS and serially cross-linked with 2 mM DSG (Disuccinimidylglutarate) for 20 min and 1% (v/v) formaldehyde for 10 min at room temperature. The cross-linking reaction was stopped by adding glycine to a final concentration of 0.125 M for 10 min at room temperature. Cells were washed twice with cold PBS. […] ChIP DNA is analyzed by SYBR® Green master mixes (Life Technologies) using described primer sets. qPCR is carried out in the ABI7300 (Applied Biosystems) with a 10 min DNA denaturation step at 95° C., followed by 40 cycles of 15 s at 95° C., 60 s at 60° C. […]
ChIP experiments were carried out as described in the previous report. […] ChIP DNA is analyzed by SYBR® Green master mixes (Life Technologies) using described primer sets. qPCR is carried out in the ABI7300 (Applied Biosystems) with a 10 min DNA denaturation step at 95° C., followed by 40 cycles of 15 s at 95° C., 60 s at 60° C. […]

Sequence of Cdk12 (Q9NYV4 whole entry): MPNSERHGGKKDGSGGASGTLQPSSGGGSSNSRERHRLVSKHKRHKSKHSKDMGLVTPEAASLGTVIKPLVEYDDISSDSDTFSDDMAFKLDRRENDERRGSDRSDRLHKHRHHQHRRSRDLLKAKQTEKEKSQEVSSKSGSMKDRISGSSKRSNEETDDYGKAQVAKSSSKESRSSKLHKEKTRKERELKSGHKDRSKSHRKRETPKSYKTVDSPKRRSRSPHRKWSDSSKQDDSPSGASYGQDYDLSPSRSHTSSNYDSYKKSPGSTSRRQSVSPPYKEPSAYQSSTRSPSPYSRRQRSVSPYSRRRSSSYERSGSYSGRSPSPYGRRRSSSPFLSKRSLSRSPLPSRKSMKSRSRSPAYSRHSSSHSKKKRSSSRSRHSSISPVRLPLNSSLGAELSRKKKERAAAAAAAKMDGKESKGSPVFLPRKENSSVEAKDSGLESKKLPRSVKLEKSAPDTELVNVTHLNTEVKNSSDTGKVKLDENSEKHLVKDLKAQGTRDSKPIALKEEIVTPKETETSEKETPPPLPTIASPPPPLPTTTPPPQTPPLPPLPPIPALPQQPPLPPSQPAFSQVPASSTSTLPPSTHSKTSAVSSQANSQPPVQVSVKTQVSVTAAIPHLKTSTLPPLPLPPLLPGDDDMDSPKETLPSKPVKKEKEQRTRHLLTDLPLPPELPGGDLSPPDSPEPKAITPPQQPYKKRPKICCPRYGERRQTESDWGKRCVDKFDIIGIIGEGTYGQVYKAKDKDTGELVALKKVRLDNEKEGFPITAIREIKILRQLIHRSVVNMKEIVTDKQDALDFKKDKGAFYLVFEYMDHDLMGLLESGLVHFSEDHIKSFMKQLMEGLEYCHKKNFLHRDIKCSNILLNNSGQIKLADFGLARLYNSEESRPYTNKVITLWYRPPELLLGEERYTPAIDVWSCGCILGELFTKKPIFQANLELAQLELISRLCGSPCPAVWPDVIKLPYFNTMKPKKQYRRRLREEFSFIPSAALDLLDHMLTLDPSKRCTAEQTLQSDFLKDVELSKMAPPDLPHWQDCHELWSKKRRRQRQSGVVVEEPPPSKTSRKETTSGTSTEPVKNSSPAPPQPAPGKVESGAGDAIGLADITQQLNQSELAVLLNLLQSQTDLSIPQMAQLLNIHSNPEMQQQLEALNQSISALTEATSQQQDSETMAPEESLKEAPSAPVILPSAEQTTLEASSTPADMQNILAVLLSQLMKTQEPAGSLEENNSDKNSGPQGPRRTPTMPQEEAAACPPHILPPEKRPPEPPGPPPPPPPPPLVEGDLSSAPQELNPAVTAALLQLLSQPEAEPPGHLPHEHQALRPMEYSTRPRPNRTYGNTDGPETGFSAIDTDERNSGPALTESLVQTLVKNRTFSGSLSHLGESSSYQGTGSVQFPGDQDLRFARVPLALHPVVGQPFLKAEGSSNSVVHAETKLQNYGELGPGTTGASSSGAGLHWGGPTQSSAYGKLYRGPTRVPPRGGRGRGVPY
Sequence of Cdk12 (O75909 whole entry partner): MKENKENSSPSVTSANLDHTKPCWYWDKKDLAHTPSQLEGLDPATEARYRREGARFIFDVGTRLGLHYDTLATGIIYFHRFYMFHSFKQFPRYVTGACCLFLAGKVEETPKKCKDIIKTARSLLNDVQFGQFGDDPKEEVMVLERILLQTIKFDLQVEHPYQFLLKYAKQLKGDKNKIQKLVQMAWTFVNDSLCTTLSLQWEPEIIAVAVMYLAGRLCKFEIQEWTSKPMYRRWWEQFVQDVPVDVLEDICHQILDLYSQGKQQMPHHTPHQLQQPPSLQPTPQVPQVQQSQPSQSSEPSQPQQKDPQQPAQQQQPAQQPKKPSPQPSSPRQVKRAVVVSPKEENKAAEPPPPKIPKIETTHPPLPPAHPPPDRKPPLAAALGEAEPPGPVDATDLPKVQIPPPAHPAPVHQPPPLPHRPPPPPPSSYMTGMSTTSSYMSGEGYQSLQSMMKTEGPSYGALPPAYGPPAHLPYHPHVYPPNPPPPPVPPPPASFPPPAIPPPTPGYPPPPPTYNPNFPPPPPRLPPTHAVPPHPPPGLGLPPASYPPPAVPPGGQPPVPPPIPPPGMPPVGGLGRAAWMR

CN1CC[C@H](c2c(O)cc(O)c3c(=O)cc(-c4ccccc4Cl)oc23)[C@H](O)C1 [flavopiridol]
inhibition of Cdk12 kinase activity (Cdk12): modestly inhibit

CC(C)(C)c1cc(O)ccc1O [tBHQ, tert-butylhydroquinone]
association of CRIF1 with the CDK12:CCNK complex [1]: greatly reduced | RNAPII CTD-Ser2 and 4E-BP1 S65, T70 phosphorylation (U2OS cells [2]): global increase | mTORC1-dependent 4E-BP1 T37/46 phosphorylation levels (U2OS cells [2]): only modestly increased

CO[C@H]1C[C@@H]2CC[C@@H](C)[C@@](O)(O2)C(=O)C(=O)N2CCCC[C@H]2C(=O)O[C@H]([C@H](C)C[C@@H]2CC[C@@H](O)[C@H](OC)C2)CC(=O)[C@H](C)/C=C(\C)[C@@H](O)[C@@H](OC)C(=O)[C@H](C)C[C@H](C)/C=C/C=C/C=C/1C [rapamycin]
number of rapamycin-sensitive mRNAs that require mTORC1 to efficiently bind eIF4G [3]: 2,961

CN(C)C/C=C/C(=O)Nc1ccc(C(=O)Nc2cccc(Nc3ncc(Cl)c(-c4c[nH]c5ccccc45)n3)c2)cc1 [THZ1]
inhibition of Cdk12 kinase activity (Cdk12): modestly inhibit

O=C(c1cc(Cc2n[nH]c(=O)c3ccccc23)ccc1F)N1CCN(C(=O)C2CC2)CC1 [Olaparib, olaparib]
cell survival with CDK12 depletion (U2OS cells [4]): sensitizes

CC[C@H](C)[C@@H]1NC(=O)CNC(=O)[C@@H]2Cc3c([nH]c4cc(O)ccc34)[S+]([O-])C[C@@H](NC(=O)CNC1=O)C(=O)N[C@@H](CC(N)=O)C(=O)N1C[C@H](O)C[C@H]1C(=O)N[C@@H]([C@@H](C)[C@@H](O)CO)C(=O)N2 (stereo in doubt) [α-amanitin]
association of eIF4E and 4E-BP1 at the CHK1 promoter [5]: largely abolished | occupancy of RNAPII or CDK12 at the CHK1 promoter [5]: without affecting
